Like-named read-outs stand apart in the source and are kept apart here.
Tests used:
Assay type in all cases: biochemical
PDE1A = PDE1A (Homo sapiens (Human), UniProt P54750); assay: biochemical
From the text: (§1) Table 1 lists the IC50 value for inhibition of PDE1 by the compounds of the invention. […] PDE1 assays are described in the Experimental Section.

PDE1C = PDE1C (Homo sapiens (Human), UniProt Q14123); assay: biochemical
From the text: as §1

PDE1B = PDE1B (Homo sapiens (Human), UniProt Q01064); assay: PDE1 inhibition assay (PDE1B); conditions: 15 nM tritium labelled cAMP, 1 hr at room temperature, SPA beads
Chain of PDE1B (Q01064 whole entry): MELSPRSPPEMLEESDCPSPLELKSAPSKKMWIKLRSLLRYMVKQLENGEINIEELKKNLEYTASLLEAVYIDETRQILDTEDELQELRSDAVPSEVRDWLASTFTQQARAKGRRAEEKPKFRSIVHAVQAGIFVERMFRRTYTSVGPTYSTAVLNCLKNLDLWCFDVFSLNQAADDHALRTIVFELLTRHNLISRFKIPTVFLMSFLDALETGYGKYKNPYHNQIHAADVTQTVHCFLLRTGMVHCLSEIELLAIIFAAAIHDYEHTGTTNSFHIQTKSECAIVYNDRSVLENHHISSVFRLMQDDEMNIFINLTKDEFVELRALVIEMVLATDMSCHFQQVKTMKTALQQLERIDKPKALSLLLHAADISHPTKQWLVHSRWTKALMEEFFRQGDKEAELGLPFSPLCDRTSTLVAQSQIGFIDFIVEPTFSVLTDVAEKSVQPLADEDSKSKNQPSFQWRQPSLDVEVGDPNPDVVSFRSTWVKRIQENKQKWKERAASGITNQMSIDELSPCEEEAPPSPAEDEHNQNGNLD
From the text: as §1

[1] = 15 nM tritium labelled cAMP, 1 hr at room temperature, SPA beads

Chain of PDE1C (Q14123 whole entry): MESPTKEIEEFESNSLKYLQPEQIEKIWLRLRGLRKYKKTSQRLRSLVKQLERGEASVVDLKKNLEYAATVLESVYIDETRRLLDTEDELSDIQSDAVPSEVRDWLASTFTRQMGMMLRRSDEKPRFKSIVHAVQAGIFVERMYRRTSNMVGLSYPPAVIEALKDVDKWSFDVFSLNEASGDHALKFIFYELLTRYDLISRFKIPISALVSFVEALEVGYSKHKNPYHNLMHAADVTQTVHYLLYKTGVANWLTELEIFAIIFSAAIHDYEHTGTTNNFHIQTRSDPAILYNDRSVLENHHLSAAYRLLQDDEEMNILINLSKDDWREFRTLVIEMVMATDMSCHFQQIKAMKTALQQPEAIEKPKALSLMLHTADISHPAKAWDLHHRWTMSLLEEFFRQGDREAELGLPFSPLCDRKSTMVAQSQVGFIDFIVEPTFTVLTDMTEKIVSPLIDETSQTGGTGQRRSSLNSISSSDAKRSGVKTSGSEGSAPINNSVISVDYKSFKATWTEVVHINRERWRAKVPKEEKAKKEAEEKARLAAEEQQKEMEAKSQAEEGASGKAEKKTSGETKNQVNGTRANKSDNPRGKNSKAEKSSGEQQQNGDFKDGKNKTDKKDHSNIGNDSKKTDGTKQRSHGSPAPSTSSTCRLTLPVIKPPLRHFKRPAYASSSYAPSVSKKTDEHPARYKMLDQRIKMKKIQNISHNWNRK
Chain of PDE1A (P54750 whole entry): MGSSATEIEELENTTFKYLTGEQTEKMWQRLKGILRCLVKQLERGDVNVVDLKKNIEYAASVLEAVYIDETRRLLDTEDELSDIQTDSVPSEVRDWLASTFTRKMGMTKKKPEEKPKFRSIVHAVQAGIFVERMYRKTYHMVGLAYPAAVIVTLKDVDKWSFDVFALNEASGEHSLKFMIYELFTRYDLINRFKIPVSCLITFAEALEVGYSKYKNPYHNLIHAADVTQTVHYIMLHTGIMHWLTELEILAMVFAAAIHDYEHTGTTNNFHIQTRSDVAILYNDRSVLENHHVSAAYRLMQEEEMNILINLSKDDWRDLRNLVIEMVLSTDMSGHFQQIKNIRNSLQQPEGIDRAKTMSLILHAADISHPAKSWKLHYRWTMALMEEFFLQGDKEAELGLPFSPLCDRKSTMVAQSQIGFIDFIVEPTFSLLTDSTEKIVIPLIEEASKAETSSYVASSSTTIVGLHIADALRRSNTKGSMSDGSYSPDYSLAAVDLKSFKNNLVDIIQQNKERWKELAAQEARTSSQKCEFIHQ

| SMILES | IC50 (PDE1A; [1]) [nM] | IC50 (PDE1C; [1]) [nM] | IC50 (PDE1B; read-out: PDE1B, IC50) [nM] | IC50 (PDE1B; PDE1B, IC50 (nM)) [nM] | IC50 (PDE1C) [nM] | IC50 (PDE1A) [nM] |
| --- | --- | --- | --- | --- | --- | --- |
| Cc1nn(C(C)C)c2c(NCc3cnn(C)c3)cc(N3CCN(C(C)(C)C)C3=O)nc12 [Example 153, 1-tert-butyl-3-[1-isopropyl-3-methyl-7-[(1-methylpyrazol-4-yl)methylamino]pyrazolo[4,3-b]pyridin-5-yl]imidazolidin-2-one] | 130 | 270 | 76 | – | – | – |
| CCOc1ncccc1-c1cc(NCc2ncn(C)n2)c2c(n1)c(C)nn2C1COC1 [Example 163, 5-(2-ethoxy-3-pyridyl)-3-methyl-N-[(1-methyl-1,2,4-triazol-3-yl)methyl]-1-(oxetan-3-yl)pyrazolo[4,3-b]pyridin-7-amine] | 120 | 120 | 14 | – | – | – |
| CCOc1ncccc1-c1cc(NCc2ccccc2OC)c2c(n1)c(C)nn2C(C)C [Example 88, 5-(2-ethoxy-3-pyridyl)-1-isopropyl-N-[(2-methoxyphenyl)methyl]-3-methyl-pyrazolo[4,3-b]pyridin-7-amine] | 110 | 170 | 5.1 | – | – | – |
| CCOc1ncccc1-c1cc(NCc2nccnc2OC)c2c(n1)c(C)nn2C(C)C [Example 91, 5-(2-ethoxy-3-pyridyl)-1-isopropyl-N-[(3-methoxypyrazin-2-yl)methyl]-3-methyl-pyrazolo[4,3-b]pyridin-7-amine] | 27 | 70 | 2.3 | – | – | – |
| CCOc1ncccc1-c1cc(NCc2nnc(C)o2)c2c(n1)c(C)nn2C(C)C [Example 1, 5-(2-ethoxypyridin-3-yl)-1-isopropyl-3-methyl-N-((5-methyl-1,3,4-oxadiazol-2-yl)methyl)-1H-pyrazolo[4,3-b]pyridin-7-amine] | 18 | 40 | 1.6 | – | – | – |
| CCCOc1ncccc1-c1cc(NCc2ncn(C)n2)c2c(n1)c(C)nn2C(C)CC (single isomer, unassigned) [Example 134, 3-methyl-1-[1-methylpropyl]-N-[(1-methyl-1,2,4-triazol-3-yl)methyl]-5-(2-propoxy-3-pyridyl)pyrazolo[4,3-b]pyridin-7-amine] | 0.96 | 1.5 | – | 0.12 | – | – |
| CCOc1ncccc1-c1cc(NCc2nnc(C)o2)c2c(cnn2C(C)CC)n1 (single isomer, unassigned) [Example 138, 5-(2-ethoxy-3-pyridyl)-N-[(5-methyl-1,3,4-oxadiazol-2-yl)methyl]-1-[1-methylpropyl]pyrazolo[4,3-b]pyridin-7-amine] | 93 | – | – | 6.8 | 180 | – |
| CCOc1ncccc1-c1cc(NCc2ccc(C)cc2)c2c(cnn2C(C)C)n1 [Example 24, 5-(2-ethoxy-3-pyridyl)-1-isopropyl-N-(p-tolylmethyl)pyrazolo[4,3-b]pyridin-7-amine] | 380 | 1200 | 160 | – | – | – |
| CCOc1ncccc1-c1cc(NCc2cc(C)cs2)c2c(n1)c(C)nn2C(C)C [Example 35, 5-(2-ethoxy-3-pyridyl)-1-isopropyl-3-methyl-N-[(4-methyl-2-thienyl)methyl]pyrazolo[4,3-b]pyridin-7-amine] | 7.3 | 32 | 1.7 | – | – | – |
| Cc1nn(C(C)C)c2c(NCc3cnn(C)c3)cc(-c3ncnn3C)nc12 [Example 195, 1-isopropyl-3-methyl-5-(1-methyl-1H-1,2,4-triazol-5-yl)-N-((1-methyl-1H-pyrazol-4-yl)methyl)-1H-pyrazolo[4,3-b]pyridin-7-amine] | 420 | 160 | 110 | – | – | – |
| CCOc1ncccc1-c1cc(NCc2cn(C)cn2)c2c(cnn2C(C)C)n1 [Example 21, 5-(2-ethoxy-3-pyridyl)-1-isopropyl-N-[(1-methylimidazol-4-yl)methyl]pyrazolo[4,3-b]pyridin-7-amine] | 8.9 | 29 | 0.44 | – | – | – |
| CCOc1ncccc1-c1cc(NCc2cnccn2)c2c(n1)c(C)nn2C(C)C [Example 76, 5-(2-ethoxy-3-pyridyl)-1-isopropyl-3-methyl-N-(pyrazin-2-ylmethyl)pyrazolo[4,3-b]pyridin-7-amine] | 23 | 32 | 2.9 | – | – | – |
| CCOc1ncccc1-c1cc(NCc2nc[nH]n2)c2c(n1)c(C)nn2C(C)CC (single isomer, unassigned) [Example 144, 5-(2-ethoxy-3-pyridyl)-3-methyl-1-[1-methylpropyl]-N-(1H-1,2,4-triazol-3-ylmethyl)pyrazolo[4,3-b]pyridin-7-amine] | 14 | 23 | – | 1.1 | – | – |
| CCOc1ncccc1-c1cc(NCc2cn(C)cn2)c2c(n1)c(C)nn2C(C)C [Example 58, 5-(2-ethoxypyridin-3-yl)-1-isopropyl-3-methyl-N-((1-methyl-1H-imidazol-4-yl)methyl)-1H-pyrazolo[4,3-b]pyridin-7-amine 2,2,2-trifluoroacetate] | 1.1 | 2.1 | 0.17 | – | – | – |
| CCOc1ncccc1-c1cc(NCc2ncc(F)cn2)c2c(n1)c(C)nn2C(C)C [Example 83, 5-(2-ethoxy-3-pyridyl)-N-[(5-fluoropyrimidin-2-yl)methyl]-1-isopropyl-3-methyl-pyrazolo[4,3-b]pyridin-7-amine] | 17 | 38 | 1.2 | – | – | – |
| CCOc1ncccc1-c1cc(NCc2ccnc(C)c2)c2c(n1)c(C)nn2C(C)C [Example 103, 5-(2-ethoxy-3-pyridyl)-1-isopropyl-3-methyl-N-[(2-methyl-4-pyridyl)methyl]pyrazolo[4,3-b]pyridin-7-amine] | 5.4 | 17 | 2.9 | – | – | – |
| Cc1ncoc1-c1cc(NCc2cnn(C)c2)c2c(n1)c(C)nn2C(C)C [Example 200, 1-isopropyl-3-methyl-N-((1-methyl-1H-pyrazol-4-yl)methyl)-5-(4-methyloxazol-5-yl)-1H-pyrazolo[4,3-b]pyridin-7-amine] | 98 | 110 | 18 | – | – | – |
| COc1ncccc1-c1cc(NCc2cccnc2C(F)(F)F)c2c(n1)c(C)nn2C(C)C [Example 170, 1-isopropyl-5-(2-methoxy-3-pyridyl)-3-methyl-N-[[2-(trifluoromethyl)-3-pyridyl]methyl]pyrazolo[4,3-b]pyridin-7-amine] | 42 | 46 | 5.3 | – | – | – |
| CCOc1ncccc1-c1cc(NCc2nccc(OC)n2)c2c(n1)c(C)nn2C(C)C [Example 189, 5-(2-ethoxy-3-pyridyl)-1-isopropyl-N-[(4-methoxypyrimidin-2-yl)methyl]-3-methyl-pyrazolo[4,3-b]pyridin-7-amine] | 3.9 | 19 | 0.49 | – | – | – |
| CCOc1ncccc1-c1cc(NCc2ccc(C(F)F)nc2)c2c(n1)c(C)nn2C(C)C [Example 117, N-[[6-(difluoromethyl)-3-pyridyl]methyl]-5-(2-ethoxy-3-pyridyl)-1-isopropyl-3-methyl-pyrazolo[4,3-b]pyridin-7-amine] | 18 | 26 | 2.3 | – | – | – |
| CCOc1ncccc1-c1cc(NCc2c[nH]c(C)n2)c2c(n1)c(C)nn2C(C)C [Example 46, 5-(2-ethoxypyridin-3-yl)-1-isopropyl-3-methyl-N-((2-methyl-1H-imidazol-4-yl)methyl)-1H-pyrazolo[4,3-b]pyridin-7-amine] | 5 | 9.7 | 0.42 | – | – | – |
| CCOc1ncccc1-c1cc(NCc2cnn(C)c2)c2c(n1)c(C)nn2CC [Example 48, 5-(2-ethoxypyridin-3-yl)-1-ethyl-3-methyl-N-((1-methyl-1H-pyrazol-4-yl)methyl)-1H-pyrazolo[4,3-b]pyridin-7-amine] | 38 | 170 | 6.3 | – | – | – |
| CCOc1ncccc1-c1cc(NCc2scnc2C)c2c(cnn2C(C)C)n1 [Example 71, 5-(2-ethoxy-3-pyridyl)-1-isopropyl-N-[(4-methylthiazol-5-yl)methyl]pyrazolo[4,3-b]pyridin-7-amine] | – | – | – | 18 | 180 | 170 |
| CCOc1ncccc1-c1cc(NCc2ccn(C)n2)c2c(n1)c(C)nn2C(C)CC (single isomer, unassigned) [Example 67, 5-(2-ethoxy-3-pyridyl)-3-methyl-1-[1-methylpropyl]-N-[(1-methylpyrazol-3-yl)methyl]pyrazolo[4,3-b]pyridin-7-amine] | 9.6 | 27 | – | 0.64 | – | – |
| COc1ncccc1-c1cc(NCc2cnc(C)s2)c2c(n1)c(C)nn2C(C)C [Example 173, 1-isopropyl-5-(2-methoxy-3-pyridyl)-3-methyl-N-[(2-methylthiazol-5-yl)methyl]pyrazolo[4,3-b]pyridin-7-amine] | 49 | 26 | 6.3 | – | – | – |
| CCOc1ncccc1-c1cc(NCc2ncc(OC)cn2)c2c(n1)c(C)nn2C(C)C [Example 176, 5-(2-ethoxy-3-pyridyl)-1-isopropyl-N-[(5-methoxypyrimidin-2-yl)methyl]-3-methyl-pyrazolo[4,3-b]pyridin-7-amine] | 81 | 93 | 12 | – | – | – |
| CCOc1ncccc1-c1cc(NCc2cn(C)nn2)c2c(n1)c(C)nn2C(C)C [Example 6, 5-(2-ethoxy-3-pyridyl)-1-isopropyl-3-methyl-N-[(1-methyltriazol-4-yl)methyl]pyrazolo[4,3-b]pyridin-7-amine] | 4.8 | 5.6 | 0.22 | – | – | – |
| CCOc1ncccc1-c1cc(NCc2ccn(C)n2)c2c(n1)c(C)nn2C(C)C [Example 60, 5-(2-ethoxy-3-pyridyl)-1-isopropyl-3-methyl-N-[(1-methylpyrazol-3-yl)methyl]pyrazolo[4,3-b]pyridin-7-amine] | 6.5 | 12 | 0.59 | – | – | – |

Reference: US10034861B2 (priority 2016, dated 2018)
